Like-named read-outs stand apart in the source and are kept apart here.
Key:
stress ulcer = assay: Effect on stress ulcer (water-immersion restraint), oral; assay type: in vivo, SD rats; settings: Rattus norvegicus, read-out: Inhibition rate (stress ulcer)
Procedure: Male SD rats (body weight: 260-290 g) which had fasted for 24 hours were placed in a wire net-restraint cage and immersed up to the breast in water at 23° C. After 7 hours, the animals were sacrificed, and the stomach were excised. […] The test compound was suspended in 5% gum arabic solution and orally administered 30 minutes before the stress load.
Cimetidine was used as control drug.

mice = assay: Acute toxicity test, intraperitoneal, mice; assay type: in vivo; settings: n=5-6, up to 500 mg/kg
From the text: From the above-mentioned results it is evident that the antiulcer activity of the compounds (I) of this invention was about ten times as potent as that of control drug.

[1] = oral, 30 minutes before stress load, male SD rats, 23° C. water immersion, 7 hours
[2] = 30 mg/kg, oral, 30 minutes before stress load, male SD rats, 23° C. water immersion, 7 hours

| SMILES | inhibition in vivo at 3 mg/kg (stress ulcer; [1]) | inhibition in vivo at 10 mg/kg (stress ulcer; [1]) | inhibition in vivo at 30 mg/kg (stress ulcer; [2]) | acute toxicity (dead cases) (mice) | inhibition in vivo at 30 mg/kg (stress ulcer; po, 7 h) | inhibition in vivo at 1 mg/kg (stress ulcer; 1 mg/kg, oral, 30 minutes before stress load, male SD rats, 23° C. water immersion, 7 hours) |
| --- | --- | --- | --- | --- | --- | --- |
| CCOC(=O)c1cnc2c(SC(=O)N3CCCCC3)cccn2c1=O [Example 13] | 34% | 70% | 81% |  |  |  |
| O=C(Sc1cccn2c(=O)ccnc12)N1CCSCC1 [Example 7] | 46% | 77% | 71% | no dead case even at a dose of 500 mg/kg |  |  |
| O=C(Sc1cccn2c(=O)ccnc12)N1CCSC1 [Example 17] | 74% | 72% | 70% | no dead case even at a dose of 500 mg/kg |  |  |
| CCOC(=O)c1cnc2c(SC(=O)N3CCCC3)cccn2c1=O [Example 16] | 40% | 62% | 85% |  |  |  |
| CN/C(=N/CCSCc1nc[nH]c1C)NC#N [Cimetidine, reference compound] |  |  |  |  | 56% |  |
| O=C(Sc1cccn2c(=O)ccnc12)N1CCCCC1 [Example 18] | 80% | 76% |  |  |  |  |
| CCOC(=O)c1cnc2c(SC(=O)N3CCSC3)cccn2c1=O [Example 14] | 50% | 68% | 89% | no dead case even at a dose of 500 mg/kg |  | 45% |
| O=C(Sc1cccn2c(=O)ccnc12)N1CCCC1 [Example 19] |  | 45% |  |  |  |  |
| O=C(Sc1cccn2c(=O)ccnc12)N1CCOCC1 [Example 9] | 33% | 66% | 80% |  |  |  |
